This note sets out measurements from PubChem BioAssay (NCI).

“And” between values parts separate entries of the source, which are not always exact repeats. Equal entries are not always repeated.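 A five-concentration, 48-hour dose response in 96-well plates underlies each endpoint, interpolated linearly between surrounding concentrations. GI50 marks 50% less growth. TGI marks complete inhibition of growth.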

Holding throughout (test): growth of human tumour cells (NCI), 48 h
The test system of assay [1] is K-562 leukemia.
For assay [2], the system named is A549 NSCLC.
In assay [3] the test system is COLO 205 colon.
Assay [4] concerns NCI-H522 lung.
The test system of assay [5] is MDA-MB-435.
Assay [6] relates to OVCAR-8 ovarian.
Assay [7] relates to SF-268 CNS.
Assay [8] deals with HCT-116 colon.

In the case of `FC(F)(F)c1cccc(-c2nn3ncccc3c2-c2ccnc(Nc3ccc4c(c3)OCCO4)n2)c1`, the GI50 in assay [1] is 8750 nM; in assay [2] it was 12.8 µM; in assay [3], 14100 nM; in assay [4], 14000 nM; in assay [5], 13100 nM; in assay [6], 10.6 µM. For the same molecule, the GI50 in assay [7] is 19.4 µM; in assay [8] it was 9750 nM. Besides, the TGI in assay [1], in assay [2], in assay [3], in assay [4], in assay [5] and in assay [6] was more than 25 µM throughout. Moreover, the TGI in assay [7] and in assay [8] was more than 25 µM in each case.
Consider `CSc1ccc(C2=NN(C(C)=O)C(c3ccc(-c4ccc(Cl)cc4)o3)C2)cc1` (centres undefined), for which the GI50 in assay [1] is 31500 nM; in assay [2], 35.2 µM; in assay [3], 36200 nM; in assay [4], 18700 nM; in assay [5] it was 29200 nM; in assay [6], 81.7 µM. Further, the GI50 in assay [7] was 21.7 µM; in assay [8], 18700 nM. In addition, the TGI in assay [1] is more than 100 µM; in assay [2], more than 100 µM; in assay [3], more than 100 µM; in assay [4], 60.3 µM; in assay [5], more than 100 µM; in assay [6], more than 100 µM. In addition, the TGI is 71.4 µM in assay [7] and more than 100 µM in assay [8].
`COc1ccc(/C=C(/C)[N+](=O)[O-])cc1OC`: the GI50 in assay [1] was 1310 nM and 1720 nM; in assay [2] it was 6.05 µM and 4.13 µM; in assay [3] it was 1780 nM and 1500 nM; in assay [4], 456 nM and 480 nM; in assay [5] it was 2170 nM and 2100 nM; in assay [6] it was 2.62 µM and 3.22 µM. Besides, the GI50 was 2.82 µM and 3.61 µM in assay [7]; 1760 nM and 1560 nM in assay [8]. The TGI in assay [1] was more than 100 µM; in assay [2] it was 19.7 µM and 17.7 µM; in assay [3], 3.28 µM and 3.05 µM; in assay [4], 1.14 µM and 2.26 µM; in assay [5], 5.55 µM and 5.29 µM; in assay [6], 8 µM and 10 µM. Further, the TGI was 7.13 µM and 13.2 µM in assay [7]; 3.37 µM and 2.98 µM in assay [8].
Regarding `O=C1C(OCCOc2ccccc2)=C(OCCOc2ccccc2)C(=O)c2ccccc21`, the GI50 in assay [1] is more than 100000 nM; in assay [2] it was 4.62 µM; in assay [3] it was 41900 nM; in assay [4] it was 3930 nM; in assay [5] it was 35400 nM; in assay [6], more than 100 µM. Further, the GI50 is 6.31 µM in assay [7] and 3130 nM in assay [8]. In addition, the TGI in assay [1], in assay [2], in assay [3], in assay [4], in assay [5] and in assay [6] was more than 100 µM each time. The TGI in assay [7] and in assay [8] was more than 100 µM throughout.
In the case of `C=CCC1(C)CCCN(Cc2ccccc2)C1=O` (centres undefined), the TGI in assay [1], in assay [2], in assay [3], in assay [4], in assay [5] and in assay [6] was more than 10 µM in each case. Besides, the TGI in assay [7] and in assay [8] was more than 10 µM in each case.
With `O=C(Nc1ccccc1OC(=O)c1ccccc1)c1ccccc1`, the GI50 was 3220 nM in assay [1]; 16.5 µM in assay [2]; 30100 nM in assay [3]; 11200 nM in assay [4]; 24500 nM in assay [5]; 6.35 µM in assay [6]. The values for the GI50 in assay [7] and in assay [8] were 3.98 µM and 3690 nM, respectively. Further, the TGI is more than 100 µM in assay [1]; more than 100 µM in assay [2]; 95.6 µM in assay [3]; 77.9 µM in assay [4]; more than 100 µM in assay [5]; more than 100 µM in assay [6]. For the same molecule, the TGI in assay [7] and in assay [8] was more than 100 µM throughout.
On to `Oc1c(-c2cc(C(F)(F)F)[nH]n2)cc(Cl)c(OCc2ccc(Cl)cc2)c1-c1ccc(Cl)c(C(F)(F)F)c1`, for which the GI50 was 126 nM in assay [1]; 1.24 µM in assay [2]; 867 nM in assay [3]; 167 nM in assay [4]; 1060 nM in assay [5]; 0.192 µM in assay [6]. For the same molecule, the GI50 in assay [7] is 0.18 µM; in assay [8], 159 nM. For the same molecule, the TGI in assay [1] stood at 6.81 µM; in assay [2] it was 6.39 µM; in assay [3], 1.79 µM; in assay [4] it was 1.72 µM; in assay [5], 4.11 µM; in assay [6], 6.45 µM. The TGI amounted to 4.14 µM in assay [7] and 0.705 µM in assay [8].
With `Nc1n[nH]c2ccc([C@@H]3Nc4cc5c(cc4[C@H]4C6CCC(C6)[C@@H]34)C(=O)NC5)cc12` (some centres undefined), the GI50 in assay [1] was 131 nM; in assay [2], 1.56 µM; in assay [3], 326 nM; in assay [4] it was 305 nM; in assay [5], 126 nM; in assay [6], 0.445 µM. Moreover, the GI50 in assay [7] is 1.04 µM; in assay [8], 343 nM. The TGI in assay [1] was more than 100 µM; in assay [2], more than 100 µM; in assay [3], 1.7 µM; in assay [4], more than 100 µM; in assay [5], 0.49 µM; in assay [6], more than 100 µM. Moreover, the TGI in assay [7] and in assay [8] was more than 100 µM each time.
Regarding `O=C(O)c1cc(CCc2cc(O)ccc2O)ccc1O`, the TGI in assay [1], in assay [2], in assay [3], in assay [4], in assay [5] and in assay [6] was more than 100 µM in each case. For the same molecule, the TGI in assay [7] and in assay [8] was more than 100 µM each time.
On to `Oc1cccc2c1NCCC2`, for which the GI50 in assay [1] was 141 nM; in assay [2], 0.111 µM; in assay [3], 2840 nM; in assay [4], 93.7 nM; in assay [5], 122 nM; in assay [6] it was 0.129 µM. Besides, the results for the GI50 in assay [7] and in assay [8] were 0.244 µM and 100 nM, respectively. Further, the TGI in assay [1] was more than 73.9 µM; in assay [2], more than 32.2 µM; in assay [3], 12.9 µM; in assay [4], 1.75 µM; in assay [5], more than 100 µM; in assay [6], 22.3 µM. For the same molecule, the figures for the TGI in assay [7] and in assay [8] were more than 67.2 µM and more than 100 µM, respectively.
